In patent US6706709B2, “Indolinone derivatives as protein kinase/phosphatase inhibitors” (Sugen, Inc., priority 2000, dated 2004) one finds IC50 data, which are given here for 13 compounds.

Each structure is given as a SMILES string.

One assay concerns the target GST-Flk1 (UniProt P35918). As to the kind of experiment: GST-FLK-1 bioassay (bio flkGST). Format: biochemical. As for the experimental part:
This assay analyzes the tyrosine kinase activity of GST-Flk1 on poly glu tyr peptides.
2. poly glu tyr 4:1, lyophilizate (Sigma Catalog # P0275). Prepare 1 mg/mL poly glu tyr in sterile PBS and store in 1 ml aliquots at −20° C.
3. Preparation of poly glu tyr (pEY) coated assay plates: Coat 2 μg/well of poly glu tyr (pEY) in 100 μL PBS at room temperature for 2 hours or at +4° C. overnight. Cover plates well to prevent evaporation.
4. PBS Buffer: To make 1 liter of a 1× working solution, mix […], 1.15 g NA2HPO4, 0.2 g KCl and 8 g NaCl in approx. 900 mL dH2O. When all reagents have dissolved, adjust the pH to 7.2 with HCl. Bring total volume to 1L with dH2O.
5. PBS-Tw Buffer: To 1L of PBS Buffer, add […] Tween-20. Stir until dissolved.
6. TBB-Blocking Buffer: To make one liter of a 1× working solution, mix 1.21 g TRIS, 8.77 g NaCl, 1 mL TWEEN-20 in approximately 900 mL dH2O. Adjust pH to 7.2 with HCl. Add 10 g BSA, stir to dissolve. Bring total volume to 1 L with dH2O. Filter to remove particulate matter.
7. 1% BSA in PBS: To make a 1× working solution, add 10 g BSA to approx. 990 mL PBS buffer, stir to dissolve. Adjust total volume to 1 L with PBS buffer, filter to remove particulate matter.
9. GST-Flk1cd purified from sf9 recombinant baculovirus transformation.
13. Kinase Dilution Buffer (KDB): Mix 10 mL Hepes (pH 7.5), 1 mL of 5 M NaCl, 40 μL of 100 mM NaVO4 and 0.4 mL of 5% BSA in dH2O with 88.56 mL of dH2O.
14. NUNC-96-well V bottom polypropylene plates Applied Scientific Catalog # AS-72092
15. EDTA: Mix 14.12 g ethylenediaminetetraacetic acid (EDTA) to approx. 70 mL dH2O. Add 10N NaOH until EDTA dissolves. Adjust pH to 8.0. Adjust total volume to 100 mL with dH2O.
16. 1° Antibody Dilution Buffer: Mix 10 mL of 5% BSA in PBS buffer with 89.5 mL TBSTw.
17. Anti-phosphotyrosine monoclonal conjugated to horseradish peroxidase (PY99 HRP, Santa Cruz Biotech).
18. 2,2′-Azino-bis(3-ethylbenzthiazoline-6-sulfonic acid (ABTS, Moss, Cat. No. ABST).
1. Coat Corning 96 well ELISA plates with 2 μg of polyEY peptide in sterile PBS as described in step 3 of Materials and Reagents.
2. Remove unbound liquid from wells by inverting plate. Wash once with TBSTw. Pat the plate on a paper towel to remove excess liquid.
3. Add 100 μL of 1% BSA in PBS to each well. Incubate, with shaking, for 1 hr. at room temperature.
5. Soak wells with 50 mM Hepes pH7.5 (150 μL/well).
6. Dilute test compound with dH2O/4% DMSO to 4 times the desired final assay concentration in 96-well polypropylene plates.
7. Add 25 μL diluted test compound to ELISA plate.
8. Add 25 μL of 40 mM MnCl2 with 4×ATP (2 μM) to all wells.
9. Add 25 μL 0.5 M EDTA to negative control wells.
10. Dilute GST-Flk1 0.005 μg (5 ng)/well in KDB. For 50 ml KDB add 100 μL of 0.050 mg/mL GST-Flk1 enzyme.
11. Add 50 μL of diluted enzyme to each well.
12. Incubate, with shaking, for 15 minutes at room temperature.
13. Stop reaction by adding 50 μL of 250 mM EDTA (pH 8.0).
14. Wash 3× with TBSTw and pat plate on paper towel to remove excess liquid.
15. Add 100 μL per well anti-phosphotyrosine HRP conjugate, 1:5,000 dilution in antibody dilution buffer. Incubate, with shaking for 90 min. at room temperature.
16. Wash as described above in step 14.
17. Add 100 μL of room temperature ABTS solution to each well.
18. Incubate, with shaking, for 10 to 15 minutes. Remove any bubbles.
19. Stop reaction by adding 20 μL of 10% SDS.
20. Read assay on Dynatech MR7000 ELISA reader: test filter at 410 nM; reference filter at 630 nM.

A further assay concerns the target T1, EGF Receptor (Homo sapiens, UniProt P00533).
T1 construct: expressed in transfected cells; host or cells: NIH 3T3/C7 (mouse fibroblasts engineered to express human EGF-R)
In words: bio EGF (EGF Receptor ELISA). It is filed as biochemical. As to the method: EGF Receptor kinase activity in cells genetically engineered to express human EGF-R was measured as described below:
The following materials and reagents were used:
b. 05-101 (UBI) (a monoclonal antibody recognizing an EGFR extracellular domain).
c. Anti-phosphotyrosine antibody (anti-Ptyr) (polyclonal).
d. Detection antibody: Goat anti-rabbit lgG horse radish peroxidase conjugate, TAGO, Inc., Burlingame, Calif.
Keep solution in dark at 4° C. until used.
The following protocol was used:
1. […] Coated plates are good for up to 10 days when stored at 4° C.
2. On day of use, remove coating buffer and replace with blocking buffer (5% Carnation Instant Non-Fat Dry Milk in PBS). Incubate the plate, shaking, at room temperature (about 23° C. to 25° C.) for 30 minutes. Just prior to use, remove blocking buffer and wash plate 4 times with TBST buffer.
2. Choose dishes having 80-90% confluence for the experiment. Trypsinize cells and stop reaction by adding 10% CS DMEM medium. Suspend cells in DMEM medium (10% CS DMEM medium) and centrifuge once at 1000 rpm at room temperature for 5 minutes.
3. Resuspend cells in seeding medium (DMEM, 0.5% bovine serum), and count the cells using trypan blue. Viability above 90% is acceptable. Seed cells in DMEM medium (0.5% bovine serum) at a density of 10,000 cells per well, 100 μL per well, in a 96 well microtiter plate. Incubate seeded cells in 5% CO2 at 37° C. for about 40 hours.
1. Check seeded cells for contamination using an inverted microscope. Dilute drug stock (10 mg/ml in DMSO) 1:10 in DMEM medium, then transfer 5 μL to a test well for a final drug dilution of 1:200 and a final DMSO concentration of 1%. Control wells receive DMSO alone. Incubate in 5% CO2 at 37° C. for one hour.
2. Prepare EGF ligand: dilute stock EGF in DMEM so that upon transfer of 10 μL dilute EGF (1:12 dilution), 25 nM final concentration is attained.
3. Prepare fresh 10 ml HNTG* sufficient for 100 μL per well wherein HNTG* comprises: HNTG stock (2.0 mL), milli-Q H2O (7.3 mL), EDTA, 100 mM, pH 7.0 (0.5 mL), Na3VO4 0.5 M (0.1 mL) and Na4(P2O7), 0.2 M (0.1 mL).
5. After two hours incubation with drug, add prepared EGF ligand to cells, 10 μL per well, to yield a final concentration of 25 nM. Control wells receive DMEM alone. Incubate, shaking, at room temperature, for 5 minutes.
6. Remove drug, EGF, and DMEM. Wash cells twice with PBS. Transfer HNTG* to cells, 100 μL per well. Place on ice for 5 minutes. Meanwhile, remove blocking buffer from other ELISA plate and wash with TBST as described above.
7. With a pipette tip securely fitted to a micropipettor, scrape cells from plate and homogenize cell material by repeatedly aspirating and dispensing the HNTG* lysis buffer. Transfer lysate to a coated, blocked, and washed ELISA plate. Incubate shaking at room temperature for one hour.
8. Remove lysate and wash 4 times with TBST. Transfer freshly diluted anti-Ptyr antibody to ELISA plate at 100 μL per well. Incubate shaking at room temperature for 30 minutes in the presence of the anti-Ptyr antiserum (1:3000 dilution in TBST).
9. Remove the anti-Ptyr antibody and wash 4 times with TBST. Transfer the freshly diluted TAGO 30 anti-rabbit IgG antibody to the ELISA plate at 100 μL per well. Incubate shaking at room temperature for 30 minutes (anti-rabbit IgG antibody: 1:3000 dilution in TBST).
10. Remove detection antibody and wash 4 times with TBST. Transfer freshly prepared ABTS/H2O2 solution to ELISA plate, 100 μL per well. Incubate at room temperature for 20 minutes. ABTS/H2O2 solution: 1.2 μL 30% H2O2in 10 mL ABTS stock.
11. Stop reaction by adding 50 μL 5N H2SO4 (optional), and determine O.D. at 410 nm.
12. The maximal phosphotyrosine signal is determined by subtracting the value of the negative controls from the positive controls. The percent inhibition of phosphotyrosine content for extract-containing wells is then calculated, after subtraction of the negative controls.
In general terms: ELISA stands for enzyme-linked immunosorbent assay.

T1 sequence (P00533 25-1210): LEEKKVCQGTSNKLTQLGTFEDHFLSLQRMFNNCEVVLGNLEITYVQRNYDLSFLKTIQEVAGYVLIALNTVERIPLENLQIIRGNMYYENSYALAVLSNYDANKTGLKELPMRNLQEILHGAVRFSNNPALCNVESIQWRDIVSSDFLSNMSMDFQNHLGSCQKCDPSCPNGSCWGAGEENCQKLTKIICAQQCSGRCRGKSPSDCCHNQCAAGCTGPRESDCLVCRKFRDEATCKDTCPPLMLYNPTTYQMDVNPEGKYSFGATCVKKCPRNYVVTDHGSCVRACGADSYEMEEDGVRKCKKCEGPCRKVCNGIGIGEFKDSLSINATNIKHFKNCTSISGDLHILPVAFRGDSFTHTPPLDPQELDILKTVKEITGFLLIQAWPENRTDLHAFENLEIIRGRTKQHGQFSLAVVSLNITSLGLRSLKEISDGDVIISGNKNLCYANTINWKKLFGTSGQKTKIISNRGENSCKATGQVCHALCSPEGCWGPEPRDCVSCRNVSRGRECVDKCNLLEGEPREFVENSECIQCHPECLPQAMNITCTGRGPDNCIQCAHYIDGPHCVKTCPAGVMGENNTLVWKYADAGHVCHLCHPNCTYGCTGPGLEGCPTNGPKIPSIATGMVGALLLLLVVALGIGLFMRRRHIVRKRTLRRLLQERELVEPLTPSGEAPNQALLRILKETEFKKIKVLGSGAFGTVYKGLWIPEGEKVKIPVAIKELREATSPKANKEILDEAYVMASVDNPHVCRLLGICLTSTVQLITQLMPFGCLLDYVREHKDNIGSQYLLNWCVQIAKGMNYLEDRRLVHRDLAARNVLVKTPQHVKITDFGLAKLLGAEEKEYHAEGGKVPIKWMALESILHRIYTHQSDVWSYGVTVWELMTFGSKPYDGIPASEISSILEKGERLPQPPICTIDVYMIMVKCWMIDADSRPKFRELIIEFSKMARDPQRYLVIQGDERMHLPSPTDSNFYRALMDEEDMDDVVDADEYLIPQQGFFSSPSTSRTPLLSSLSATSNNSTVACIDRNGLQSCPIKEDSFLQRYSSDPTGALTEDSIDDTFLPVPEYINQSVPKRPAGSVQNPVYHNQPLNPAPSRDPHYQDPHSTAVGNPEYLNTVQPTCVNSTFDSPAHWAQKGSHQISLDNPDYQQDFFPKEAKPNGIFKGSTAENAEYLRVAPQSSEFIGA

For the compound `CCN(CC)CCOc1ccc2[nH]c(C=C3C(=O)Nc4ccc(-c5ccccc5)cc43)cc2c1` [IN-019, 3-[5-(2-diethylamino-ethoxy)-1H-indol-2-ylmethylene]-5-phenyl-1,3-dihydro-indol-2-one], the IC50 (in general, the concentration at which inhibition is half-maximal) was found to be 160 nM on GST-Flk1 and 9550 nM on EGF Receptor.
For the compound `CNS(=O)(=O)c1ccc2c(c1)C(=Cc1cc3cc(OCCN4CCCC4)ccc3[nH]1)C(=O)N2` [IN-041, 2-oxo-3-[5-(2-pyrrolidin-1-yl-ethoxy)-1H-indol-2-ylmethylene]-2,3-dihydro-1H-indole-5-sulfonic acid methylamide], the figures for the IC50 against GST-Flk1 and against EGF Receptor were 210 nM and 8430 nM, respectively.
For the compound `COc1cccc(-c2ccc3c(c2)NC(=O)C3=Cc2cc3cc(OCCN4CCCC4)ccc3[nH]2)c1` [IN-027, 6-(3-methoxy-phenyl)-3-[5-(2-pyrrolidin-1-yl-ethoxy)-1H-indol-2-ylmethylene]-1,3-dihydro-indol-2-one], the figures for the IC50 at GST-Flk1 and on EGF Receptor were 2010 nM and > 20000 nM, respectively.
Turning to `O=C1Nc2ccc(C(=O)O)cc2C1=Cc1cc2cc(OCCN3CCOCC3)ccc2[nH]1` [IN-030, 3-[5-(2-morpholin-4-yl-ethoxy)-1H-indol-2-ylmethylene]-2-oxo-2,3-dihydro-1H-indole-5-carboxylic acid], the results for the IC50 on GST-Flk1 and against EGF Receptor were < 9 nM and > 20000 nM, respectively.
`O=C1Nc2cc(C(=O)O)ccc2C1=Cc1cc2cc(OCCN3CCOCC3)ccc2[nH]1` [IN-031, 3-[5-(2-morpholin-4-yl-ethoxy)-1H-indol-2-ylmethylene]-2-oxo-2,3-dihydro-1H-indole-6-carboxylic acid]: the IC50 against GST-Flk1 was 530 nM; on EGF Receptor it was > 20000 nM.
`O=C1Nc2cc(-c3ccc(F)cc3)ccc2C1=Cc1cc2cc(OCCN3CCCC3)ccc2[nH]1` [IN-029, 6-(4-fluoro-phenyl)-3-[5-(2-pyrrolidin-1-yl-ethoxy)-1H-indol-2-ylmethylene]-1,3-dihydro-indol-2-one]: the IC50 is 760 nM against GST-Flk1 and > 20000 nM at EGF Receptor.
For `O=C1Nc2ccc(S(=O)(=O)N3CCc4cc(Br)ccc43)cc2C1=Cc1cc2cc(OCCN3CCCC3)ccc2[nH]1` [IN-052, 5-(5-bromo-2,3-dihydro-indole-1-sulfonyl)-3-[5-(2-pyrrolidin-1-yl-ethoxy)-1H-indol-2-ylmethylene]-1,3-dihydro-indol-2-one], in that order: 1020 nM and 1160 nM.
As to `O=C1Nc2cc(C(=O)O)ccc2C1=Cc1cc2cc(OCCN3CCCC3)ccc2[nH]1` [IN-023, 2-oxo-3-[5-(2-pyrrolidin-1-yl-ethoxy)-1H-indol-2-ylmethylene]-2,3-dihydro-1H-indole-6-carboxylic acid], the IC50 at GST-Flk1 was 240 nM; on EGF Receptor it was > 20000 nM.
For `Cc1[nH]c2ccccc2c1C=C1C(=O)Nc2ccc(S(=O)(=O)N(C)C)cc21` [IN-073, 3-(2-methyl-1H-indol-3-ylmethylene)-2-oxo-2,3-dihydro-1H-indole-5-sulfonic acid dimethylamide], in that order: > 20000 nM and > 100000 nM.
Regarding `CNS(=O)(=O)c1ccc2c(c1)C(=Cc1cc3cc(OCCN4CCOCC4)ccc3[nH]1)C(=O)N2` [IN-053, 3-[5-(2-morpholin-4-yl-ethoxy)-1H-indol-2-ylmethylene]-2-oxo-2,3-dihydro-1H-indole-5-sulfonic acid methylamide], the values for the half-maximal inhibitory concentration (IC50) against GST-Flk1 and on EGF Receptor were 1210 nM and 15200 nM, respectively.
For `CN(C)S(=O)(=O)c1ccc2c(c1)C(=Cc1ccc3[nH]ccc3c1)C(=O)N2` [IN-074, 3-(1H-indol-5-ylmethylene)-2-oxo-2,3-dihydro-1H-indole-5-sulfonic acid dimethylamide], in that order: 1580 nM and > 100000 nM.
For `O=C1Nc2ccc(S(=O)(=O)N3CCc4ccccc4C3)cc2C1=Cc1cc2cc(OCCN3CCCC3)ccc2[nH]1` [IN-051, 5-(3,4-dihydro-1H-isoquinoline-2-sulfonyl)-3-[5-(2-pyrrolidin-1-yl-ethoxy)-1H-indol-2-ylmethylene]-1,3-dihydro-indol-2-one], in that order: 370 nM and 3520 nM.
Regarding `O=C1Nc2cc(-c3cccnc3)ccc2C1=Cc1cc2cc(OCCN3CCCC3)ccc2[nH]1` [IN-025, 6-pyridin-3-yl-3-[5-(2-pyrrolidin-1-yl-ethoxy)-1H-indol-2-ylmethylene]-1,3-dihydro-indol-2-one], the IC50 was 140 nM against GST-Flk1 and > 20000 nM against EGF Receptor.
